How the values were obtained:
Experiment in all cases: relative viability (nuclei count vs DMSO), 5 days (fraction); higher = more cells survive
[1] = compound: C[C@@]1(C(=O)Nc2ccc(F)nc2)CCCN1c1nc(Nc2cc(C3CC3)n[nH]2)c2cccn2n1 + CC1(C)CCC(c2ccc(Cl)cc2)=C(CN2CCN(c3ccc(C(=O)NS(=O)(=O)c4ccc(N[C@H](CCN5CCOCC5)CSc5ccccc5)c(S(=O)(=O)C(F)(F)F)c4)cc3)CC2)C1 [Navitoclax] (partner 0.5 µM)
Summary of the method: (§1)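 Relative viability was taken as the ratio of nuclei in treated wells to nuclei in vehicle wells. Lung cancer cell lines in 1536-well plates received compounds by pin tool one day after seeding, either one drug alone or a fixed anchor-drug dose plus five library-drug doses (not always all listed) in √10 steps. Nuclei were counted on 4× images after 5 days of treatment, and values are medians of duplicate plates.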

Motesanib + Phenformin = compound: CC1(C)CNc2cc(NC(=O)c3cccnc3NCc3ccncc3)ccc21 [Motesanib] + N=C(N)NC(=N)NCCc1ccccc1 [Phenformin] (partner 250 µM)
Summary of the method: as §1

Motesanib + Trametinib = compound: CC1(C)CNc2cc(NC(=O)c3cccnc3NCc3ccncc3)ccc21 [Motesanib] + CC(=O)Nc1cccc(-n2c(=O)n(C3CC3)c(=O)c3c(Nc4ccc(I)cc4F)n(C)c(=O)c(C)c32)c1 [Trametinib] (partner 0.02 µM)
Summary of the method: as §1

Motesanib + Decitabine = compound: CC1(C)CNc2cc(NC(=O)c3cccnc3NCc3ccncc3)ccc21 [Motesanib] + Nc1ncn([C@H]2C[C@H](O)[C@@H](CO)O2)c(=O)n1 [Decitabine] (partner 2 µM)
Summary of the method: as §1

| Cell Line | relative viability ([1]; first compound 0.04 µM) | relative viability ([1]; first compound 0.1265 µM) | relative viability ([1]; first compound 0.4 µM) | relative viability ([1]; first compound 1.265 µM) | relative viability (Motesanib + Phenformin; first compound 0.01 µM) | relative viability (Motesanib + Phenformin; first compound 0.03162 µM) | relative viability (Motesanib + Phenformin; first compound 0.1 µM) | relative viability (Motesanib + Phenformin; first compound 0.3162 µM) | relative viability (Motesanib + Phenformin; first compound 1 µM) | relative viability (Motesanib + Trametinib; first compound 0.01 µM) | relative viability (Motesanib + Trametinib; first compound 0.03162 µM) | relative viability (Motesanib + Trametinib; first compound 0.1 µM) | relative viability (Motesanib + Trametinib; first compound 0.3162 µM) | relative viability (Motesanib + Trametinib; first compound 1 µM) | relative viability (Motesanib + Decitabine; first compound 0.01 µM) | relative viability (Motesanib + Decitabine; first compound 0.03162 µM) | relative viability (Motesanib + Decitabine; first compound 0.1 µM) | relative viability (Motesanib + Decitabine; first compound 0.3162 µM) | relative viability (Motesanib + Decitabine; first compound 1 µM) |
| --- | --- | --- | --- | --- | --- | --- | --- | --- | --- | --- | --- | --- | --- | --- | --- | --- | --- | --- | --- |
| NCI-H596 | 1.01 | 0.809 | 0.921 | 1.09 | 0.779 | 0.861 | 0.67 | 0.724 | 0.85 | 0.68 | 0.918 | 0.761 | 0.798 | 0.958 | 1.1 | 1.08 | 1.12 | 1.15 | 1.16 |
| H3255 | 0.684 | 0.463 | 0.49 | 0.36 | 0.357 | 0.367 | 0.364 | 0.394 | 0.35 | 0.533 | 0.681 | 0.684 | 0.626 | 0.67 | 0.561 | 0.651 | 0.605 | 0.623 | 0.678 |
| NCI-H647 | 1.1 | 0.989 | 0.894 | 1.14 | 0.491 | 0.554 | 0.462 | 0.657 | 0.524 | 0.452 | 0.533 | 0.42 | 0.427 | 0.491 | 0.43 | 0.441 | 0.488 | 0.542 | 0.535 |
| NCI-H2023 | 0.89 | 0.703 | 0.654 | 0.702 | 0.387 | 0.297 | 0.443 | 0.421 | 0.463 | 0.666 | 0.339 | 0.574 | 0.589 | 0.569 | 0.23 | 0.226 | 0.281 | 0.25 | 0.347 |
| NCI-H23 | 0.658 | 0.587 | 0.444 | 0.664 | 0.799 | 0.865 | 0.771 | 0.795 | 0.715 | 0.392 | 0.341 | 0.37 | 0.432 | 0.382 | 0.31 | 0.382 | 0.436 | 0.52 | 0.523 |
| NCI-H1944 | 0.991 | 0.947 | 0.981 | 1.08 | 0.184 | 0.2 | 0.221 | 0.246 | 0.254 | 0.438 | 0.442 | 0.408 | 0.455 | 0.384 | 0.477 | 0.444 | 0.495 | 0.534 | 0.508 |
| NCI-H1793 | 0.31 | 0.304 | 0.378 | 0.351 | 0.295 | 0.313 | 0.307 | 0.39 | 0.362 | 0.375 | 0.362 | 0.513 | 0.409 | 0.523 | 0.561 | 0.539 | 0.663 | 0.755 | 0.589 |
| NCI-H520 | 1.16 | 0.988 | 1.04 | 1.11 | 0.538 | 0.671 | 0.468 | 0.587 | 0.499 | 0.516 | 0.561 | 0.68 | 0.655 | 0.627 | 0.554 | 0.538 | 0.626 | 0.613 | 0.669 |
| NCI-H460 | 1.08 | 0.893 | 1.01 | 1.23 | 0.478 | 0.455 | 0.54 | 0.549 | 0.527 | 0.139 | 0.104 | 0.209 | 0.179 | 0.142 | 0.531 | 0.453 | 0.467 | 0.568 | 0.543 |
| EKVX | 0.944 | 0.728 | 0.785 | 0.593 | 0.225 | 0.231 | 0.242 | 0.248 | 0.24 | 0.303 | 0.414 | 0.344 | 0.459 | 0.522 | 0.385 | 0.404 | 0.427 | 0.401 | 0.32 |
| EPLC-272H | 1.07 | 1.04 | 1.07 | 1.21 | 0.253 | 0.333 |  | 0.338 | 0.247 | 0.287 | 0.289 | 0.286 | 0.299 | 0.341 | 0.37 | 0.371 | 0.387 | 0.335 | 0.402 |
| NCI-H1395 | 1.33 | 0.983 | 1.03 | 1.24 | 0.437 | 0.431 | 0.406 | 0.543 | 0.433 | 0.98 | 0.977 | 1.06 | 1.04 | 1.19 | 0.765 | 0.698 | 0.795 | 0.739 | 0.791 |
| NCI-H2126 | 0.669 | 0.725 | 0.591 | 0.761 | 0.525 | 0.557 | 0.511 | 0.567 | 0.579 | 0.58 | 0.579 | 0.579 | 0.543 | 0.547 | 0.608 | 0.645 | 0.625 | 0.698 | 0.709 |
| LXF-289 | 0.987 | 0.917 | 0.941 | 0.991 | 0.526 | 0.478 | 0.573 | 0.529 | 0.521 | 0.624 | 0.684 | 0.689 | 0.728 | 0.704 | 0.406 | 0.427 | 0.617 | 0.651 | 0.688 |

Source: the supplement of paper PMC10307832
